Data published in article PMC12035797, “Peptidomimetics Activating the Proteasome: A New Perspective for Parkinson’s Treatment” (Journal of Medicinal Chemistry, 2025).
*1 amine or outer side, *2 acyl side, *3 side chain or, on linkers, in order; H or OH if unused. Where a SMILES comes first, the peptide text is derived from it. [ ]: non-standard residue; d: D form. X2 = N=C(N)NCCC[C@@H](C(=O)[*:2])N(c1ccc([N+](=O)[O-])c2nonc12)[*:1]; Nlys = NCCCCNCC(=O)O

Legend:
[1] = test system: T1, human 20S proteasome; assay: h20S proteasome activity probed with FRET-type Dabcyl-EDANS substrate; format: biochemical
T1 construct: human proteasome isolated from erythrocytes; from tissue; host or cells: human erythrocytes
Description: To assess the influence of substitutions increasing proteolytic stability on the modulators’ capacity to stimulate chymotrypsin-like, trypsin-like, and caspase-like activity of h20S, we used classic fluorogenic substrates: Suc-LLVY-AMC, Boc-LRR-AMC, and Z-LLE-AMC, respectively. To confirm the observed stimulating capacity, we also conducted assays using a FRET-type reporter peptide with a sequence consisting of 11 residues (Lys(Dabcyl)-[…]EDANS)-Gly).[27] As we checked, the activated 20S hydrolyzed this substrate after more than one residue (Lys, Gly, and Glu), which makes it a probe better reflecting the concerted action of the proteasome’s three peptidases. […] The discrepancy in the level of activation was mainly due to the greater sensitivity of the FRET substrate, as it is not digested, unlike the AMC-based probes, by the latent proteasome, which results in greater differences in fluorescence relative to the controls. […] The ability to affect individual peptidases of the proteasome in different ways is most likely related to the allosteric mechanism of action of the modulators. Binding at a site distant from the catalytic compartment may result in greater diversity in the pathways by which the signal reaches active sites and differential effects of that signal on each peptidase.
(§1) The effect of all synthesized peptidomimetics on the catalytic activity of the proteasome was tested using a human proteasome isolated from erythrocytes. Suc-LLVY-AMC, Boc-LRR-AMC, and Z-LLE-AMC fluorogenic substrates (Bachem, Bubendorf, Switzerland) were used for assessment of the chymotrypsin-, trypsin-, and caspase-like activities, respectively. A homemade FRET-type substrate Dabcyl-EDANS (Lys(Dabcyl)-[…]EDANS)-Gly)[26] was used as an additional probe. Stock solutions of the substrates and tested peptidomimetics were prepared in dimethyl sulfoxide (DMSO), ensuring that the final concentration of DMSO in all samples remained consistent at 2%. The small fluorogenic substrates were used at a final concentration of 100 μM, while Dabcyl-EDANS was prepared at a final concentration of 15 μM. Modulators were tested in concentrations ranging from 1.0 to 50 μM, with compounds containing TAT or 6R sequences tested at lower concentrations ranging from 0.5 to 10 μM. Activity tests were conducted in 96-well plates using 50 mM Tris/HCl, pH 8.0, as an assay buffer. The final concentration of h20S proteasome was adjusted to 0.002 mg/mL (2.8 nM). The fluorescence of released aminomethylcoumarin (AMC) was monitored at 460 nm (λex was 380 nm), while the hydrolysis of Dabcyl-EDANS was detected by measuring emission at 493 nm (λex was set at 335 nm). Fluorescence measurements were taken continuously every 2 min over a 60 min period at 37 °C using a Tecan Infinite M200Pro spectrofluorometer (Tecan Trading AG, Männedorf, Switzerland). All activity assays were performed in at least three independent replicates. The relative activity was calculated in relation to the catalytic activity of the vehicle (DMSO)-treated latent proteasome, which was regarded as 100%. Statistical analysis was performed using the one-way ANOVA followed by Tukey’s post-hoc test. P-value <0.05 was considered statistically significant.

[2] = test system: T2, human 20S proteasome, ChT-L peptidase; assay: Chymotrypsin-like (ChT-L) activity of h20S probed with Suc-LLVY-AMC; format: biochemical; conditions: 100 μM Suc-LLVY-AMC; level reached vs latent proteasome
T2 construct: human proteasome isolated from erythrocytes; from tissue; host or cells: human erythrocytes
Protocol: To assess the influence of substitutions increasing proteolytic stability on the modulators’ capacity to stimulate chymotrypsin-like, trypsin-like, and caspase-like activity of h20S, we used classic fluorogenic substrates: Suc-LLVY-AMC, Boc-LRR-AMC, and Z-LLE-AMC, respectively.
as §1, with “Modulators were tested in concentrations ranging from 1.0 to 50 μM, with compounds containing TAT or 6R sequences tested at lower concentrations ranging from 0.5 to 10 μM.” left out

[3] = PAMPA, blood–brain barrier mimic; format: in vitro ADME; conditions: 500 μM, 37 °C, 22 h
Description: In neurodegenerative diseases, proteins prone to aggregation accumulate in the neuronal cells. Therefore, a necessary feature of potential drugs is not only permeability across the cell membrane but also the ability to cross the blood-brain barrier (BBB). To preliminarily investigate this feature, we performed parallel artificial membrane permeation assays (PAMPA) including as positive controls propranolol and Tat47-57, known for their ability to penetrate the blood-brain barrier. Dopamine hydrobromide was included as a negative control. For comparison, we also tested compound 1a, which is devoid of a CPP sequence. […] The PAMPA was performed as previously described.[21] Briefly, a 2% solution of porcine brain lipid membrane (PBL; Avanti Polar Lipids Inc., Alabaster, AL, USA) in anhydrous dodecane was used as a mimic of the blood-brain barrier. Propranolol hydrochloride (Merck, Darmstadt, Germany) and Tat47-57 (synthesized in-house) served as positive controls, while dopamine hydrobromide (Merck, Darmstadt, Germany) was used as a negative control. Stock solutions of the tested compounds and controls were prepared at a concentration of 10 mM in deionized water and then diluted to 500 μM using 0.1 M PBS containing 5% DMSO. The donor-acceptor plate assembly was incubated at 37 °C while being shaken at 250 rpm for 22 h. Absorbance at 290 nm was measured for propranolol using an Infinite […] plate reader (Infinite […] plate reader, Tecan). For the other samples, fluorescence measurements were performed after the compounds were reacted with 0.02% fluorescamine. The rate of passive diffusion was calculated as the linear velocity of permeation (Pe). The data represent an average of three independent biological replicates.

[4] = test system: HEK293T cells; assay: Fluorescence microscopy of cell penetration of NBD-labeled activators; format: cell-based, human; conditions: 10 μM, 3 h
Protocol: In order to verify the permeability of the constructs across cell membranes, we synthesized their analogues with an NBD fluorophore attached at the N-terminus. The excitation wavelength for this fluorophore is 467 nm, and the emission wavelength is 539 nm.
HEK293T cells were incubated in DMEM supplemented with 10% FBS and penicillin/streptomycin (100 units/mL/100 μg/mL), at 37 °C with 5% CO2. Cells were seeded on 24-well plates at a density of 3 × 10^4 cells per well and incubated in 0.5 mL of the complete medium for 48 h. Then, the fresh medium containing the modulators labeled with NBD fluorophore was added to each well at a concentration of 10 μM. Half an hour before the end of the incubation, 20 μL of Hoechst 33342 dye was added to each well, and then the plate was placed back in the incubator. After the 3 h incubation, cells were washed thoroughly with PBS, and a phenol red-free culture medium (FluoroBriteTM DMEM, Gibco/Thermo Fisher Scientific, Waltham, MA, USA) was added. Subsequently, the cells were examined using a Zeiss AXIO Observer D1 microscope (Carl Zeiss AG, Oberkochen, Germany) using an Alexa Fluor 488 filter.

stimulation of h20S activity, Dabcyl-EDANS probe ([1]; 15 μM Dabcyl-EDANS, level reached vs latent proteasome) [fold] | h20S stimulating potency, Dabcyl-EDANS ([1]; at the lowest concentrations) | stimulation of h20S activity, Suc-LLVY-AMC probe [2] [fold] | permeability across artificial BBB membrane, PAMPA [3] | Compound | h20S stimulating capacity, Dabcyl-EDANS ([1]; 15 μM Dabcyl-EDANS, 1.0-50 μM modulator) | penetration into cells, NBD fluorescence [4]
12 | even more potent than 1 | 8 | at the level of a negative control | C[C@@H](O)[C@H](NC(=O)[C@H](Cc1ccccc1)NC(=O)[C@H](Cc1ccc(O)cc1)NC(=O)CNCCCCN)C(=O)NCC(=O)N[C@@H](CO)C(=O)N[C@@H](CCCCN)C(=O)N[C@@H](CC(=O)O)C(=O)N[C@@H](Cc1c[nH]c2ccccc12)C(=O)N[C@@H](CCCNC(=N)N)C(=O)N[C@@H](CO)C(=O)N[C@@H](Cc1ccc(O)cc1)C(=O)N[C@@H](Cc1ccc(O)cc1)C(=O)N[C@@H](CO)C(=O)O [compound 1a] (H-[Nlys]YFTGSKDWRSYYS-OH) | did not lose their ability to effectively stimulate h20S | –
– | – | – | – | C[C@@H](O)[C@H](NC(=O)[C@H](Cc1ccccc1)NC(=O)[C@H](Cc1ccc(O)cc1)NC(=O)CN(CCCCN)C(=O)[C@H](CCCNC(=N)N)NC(=O)[C@H](CCCNC(=N)N)NC(=O)[C@H](CCCNC(=N)N)NC(=O)[C@H](CCC(N)=O)NC(=O)[C@H](CCCNC(=N)N)NC(=O)[C@H](CCCNC(=N)N)NC(=O)[C@H](CCCCN)NC(=O)[C@H](CCCCN)NC(=O)[C@H](CCCNC(=N)N)Nc1ccc([N+](=O)[O-])c2nonc12)C(=O)NCC(=O)N[C@@H](CO)C(=O)N[C@@H](CCCCN)C(=O)N[C@@H](CC(=O)O)C(=O)N[C@@H](Cc1c[nH]c2ccccc12)C(=O)N[C@@H](CCCNC(=N)N)C(=O)N[C@@H](CO)C(=O)N[C@@H](Cc1ccc(O)cc1)C(=O)N[C@@H](Cc1ccc(O)cc1)C(=O)N[C@@H](CO)C(=O)O [1f_NBD] (H-[X2]KKRRQRRR[Nlys]YFTGSKDWRSYYS-OH; C-terminus assumed) | – | fluorescence from the attached NBD tag is visible inside HEK293T cells
– | – | – | – | C[C@@H](O)[C@H](NC(=O)[C@H](Cc1ccccc1)NC(=O)[C@H](Cc1ccc(O)cc1)NC(=O)CN(CCCCN)C(=O)[C@H](CCCNC(=N)N)NC(=O)[C@H](CCCNC(=N)N)NC(=O)[C@H](CCCNC(=N)N)NC(=O)[C@H](CCCNC(=N)N)NC(=O)[C@H](CCCNC(=N)N)NC(=O)[C@H](CCCNC(=N)N)Nc1ccc([N+](=O)[O-])c2nonc12)C(=O)NCC(=O)N[C@@H](CO)C(=O)N[C@@H](CCCCN)C(=O)N[C@@H](CC(=O)O)C(=O)N[C@@H](Cc1c[nH]c2ccccc12)C(=O)N[C@@H](CCCNC(=N)N)C(=O)N[C@@H](CO)C(=O)N[C@@H](Cc1ccc(O)cc1)C(=O)N[C@@H](Cc1ccc(O)cc1)C(=O)N[C@@H](CO)C(=O)O [1g_NBD] (H-[X2]RRRRR[Nlys]YFTGSKDWRSYYS-OH; C-terminus assumed) | – | fluorescence from the attached NBD tag is visible inside HEK293T cells
